Results: BindingDB's records for doi:10.1021/jm5002502 (St. John'S University, 2014)

Molecular target: Poly [ADP-ribose] polymerase 1 (Homo sapiens, UniProt P09874)
Assay: Inhibition of PARP-1 (unknown origin) using biotinylated NAD+ as substrate after 60 mins by spectrophotometry

Sequence of Poly [ADP-ribose] polymerase 1 (P09874 whole entry): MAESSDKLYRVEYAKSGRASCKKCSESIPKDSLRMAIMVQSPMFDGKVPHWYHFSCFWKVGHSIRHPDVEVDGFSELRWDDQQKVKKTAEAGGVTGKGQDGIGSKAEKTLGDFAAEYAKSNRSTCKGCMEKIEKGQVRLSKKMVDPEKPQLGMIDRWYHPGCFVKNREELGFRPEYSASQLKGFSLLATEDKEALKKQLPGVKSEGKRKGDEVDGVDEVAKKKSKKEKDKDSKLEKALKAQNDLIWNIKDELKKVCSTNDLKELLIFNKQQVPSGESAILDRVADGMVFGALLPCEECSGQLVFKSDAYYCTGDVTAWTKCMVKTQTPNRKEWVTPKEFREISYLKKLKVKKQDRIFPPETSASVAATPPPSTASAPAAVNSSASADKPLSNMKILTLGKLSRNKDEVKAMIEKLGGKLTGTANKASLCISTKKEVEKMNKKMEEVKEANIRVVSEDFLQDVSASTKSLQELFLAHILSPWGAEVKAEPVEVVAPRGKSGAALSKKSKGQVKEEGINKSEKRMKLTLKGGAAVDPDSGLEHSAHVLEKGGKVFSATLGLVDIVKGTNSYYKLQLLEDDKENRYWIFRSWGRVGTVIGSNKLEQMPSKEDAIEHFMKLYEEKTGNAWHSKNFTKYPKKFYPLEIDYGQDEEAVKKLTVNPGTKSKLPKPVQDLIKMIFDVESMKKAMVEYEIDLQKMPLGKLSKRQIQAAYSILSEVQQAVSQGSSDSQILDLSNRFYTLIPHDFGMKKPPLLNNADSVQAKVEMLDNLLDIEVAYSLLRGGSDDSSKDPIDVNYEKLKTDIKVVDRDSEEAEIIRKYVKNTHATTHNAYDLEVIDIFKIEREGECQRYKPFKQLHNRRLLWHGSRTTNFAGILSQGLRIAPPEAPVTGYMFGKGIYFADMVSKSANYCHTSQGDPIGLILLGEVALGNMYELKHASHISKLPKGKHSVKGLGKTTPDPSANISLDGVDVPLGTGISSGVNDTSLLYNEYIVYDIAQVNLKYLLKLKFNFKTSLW

IC50: 4.65 µM
SMILES: CC1Cc2c(N)ccc(C(N)=O)c2O1 (stereo unspecified)
